Reference: publication PMC10289985, “Brigatinib pharmacokinetics in patients with chronic hepatic impairment” (Investigational New Drugs, 2023)
Where two headings read alike, the source gives them in different places.

Key:
[1] = Single oral 90-mg dose plasma PK in participants with chronic hepatic impairment and matched healthy participants; type: in vivo, human; conditions: for Tmax / half-life / AUC(0-t) / AUC(0-inf): human, plasma, po, 90 mg; for Tmax / half-life / AUC(0-t) / AUC(0-inf) / Tmax, median (range) / CL/Fu, unbound apparent oral clearance, geometric mean (geometric %CV) / Vz/Fu, unbound apparent volume of distribution, geometric mean (geometric %CV) / Cmax,u, geometric mean (geometric %CV): single oral 90 mg; for Tmax / Tmax, median (range): fasted; for Tmax: read-out: Tmax, median (range); for half-life: read-out: t1/2, terminal elimination half-life, geometric mean (geometric %CV) (converted); for AUC(0-t) / AUC(0-inf) / Cmax,u, geometric mean (geometric %CV): unbound; for AUC(0-t): read-out: AUC0−last,u, geometric mean (geometric %CV); for AUC(0-inf): read-out: AUC0−∞,u, geometric mean (geometric %CV)
Experimental: This open-label, parallel-group, inpatient, nonrandomized study was performed at 1 clinical study site, the Orlando Clinical Research Center (Orlando, FL, USA), and evaluated the PK of brigatinib after administration of a single oral 90-mg dose in participants with chronic hepatic impairment and in healthy participants with normal hepatic function. The study consisted of a screening period of up to 22 days and a single treatment and assessment period that included a 10-day (9-night) inpatient stay (Day −1 to Day 9). On the morning of Day 1, each participant received a single oral dose of 90 mg brigatinib under fasting conditions with approximately 240 mL of water. Fasting was required for approximately 10 hours before study drug dosing, for approximately 4 hours postdose, and for at least 8 hours before clinical laboratory tests. Meals were standardized for all participants. Water was permitted ad libitum except for the period between approximately 1 hour before and 1 hour after dosing. Participants remained in the clinic through 192 hours postdose for PK sample collection and were discharged from the clinical research site on Day 9.
Blood samples were collected before brigatinib administration (predose) and at 0.5, 1, 1.5, 2, 2.5, 3, 4, 6, 8, 12, 24, 36, 48, 72, 96, 120, 144, 168, and 192 hours following brigatinib administration to measure brigatinib plasma concentrations. Samples to assess brigatinib plasma protein binding were collected at 2, 8, and 24 hours postdose.
Plasma samples were analyzed for brigatinib concentrations using a previously reported dual-range assay with a lower limit of quantitation of 0.100 ng/mL and an upper limit of quantitation of 2500 ng/mL [14].
The PK-evaluable population was defined as participants who received the single dose of brigatinib, had no major protocol deviations that affected the PK analyses, and had sufficient data to calculate PK parameters. Individual participant brigatinib plasma concentration-time profiles were analyzed via noncompartmental analysis using Phoenix WinNonLin version 6.4 (Certara, Inc., Princeton, NJ) to calculate plasma PK parameters. Plasma PK parameters calculated for brigatinib included maximum observed plasma concentration (Cmax), time to first maximum observed plasma concentration (Tmax), area under the plasma concentration-time curve from time 0 to the time of the last measurable concentration (AUC0−last), area under the plasma concentration-time curve from time 0 to infinity (AUC0−∞), terminal elimination half-life (t1/2), apparent oral clearance (CL/F), and apparent volume of distribution during the terminal disposition phase (Vz/F). The fraction of unbound brigatinib in plasma was calculated using the following formula: % free (unbound) = [free brigatinib concentration measured in buffer after dialysis] / [total brigatinib concentration measured in plasma] × 100. Unbound brigatinib PK parameters were derived from the following formula (except for the unbound CL/F and unbound Vz/F, which were calculated as total CL/F or total Vz/F divided by the individual participant’s overall mean fraction unbound): unbound PK parameter = (PK parameter based on total concentrations) × (individual participant’s overall mean fraction unbound value).
Descriptive statistics, including mean, standard deviation (SD), percent coefficient of variation (%CV), and median, minimum, and maximum values, were calculated for each time point for plasma brigatinib concentrations for the healthy participant and each Child-Pugh group. Arithmetic means, SD, %CV, median, minimum, and maximum values, and the number of observations were calculated for the PK parameters. Geometric mean and geometric %CV were derived for all parameters, except Tmax, which was reported as median (minimum–maximum). Statistical comparisons of unbound brigatinib PK parameters were made among the hepatic function groups (ie, healthy participants, Child-Pugh classes A, B, and C) using an analysis of variance. […]

[2] = tested on: cytochrome P450 (CYP) 2C8 and CYP3A4; design: method as in ref 13 = [13]; 13. Alunbrig [package insert] (2022) Takeda Pharmaceuticals America, Inc., Lexington, MA; conditions: in vitro; cited from earlier work
[3] = design: method as in PMID 30570839; conditions: versus fasted conditions; healthy participants; cited from earlier work
[4] = tested on: ALK-positive metastatic NSCLC; design: method as in PMID 36065449; conditions: 180 mg QD with 7-day lead-in at 90 mg QD; median follow-up 28.3 months; cited from earlier work
[5] = mild (Child-Pugh A) vs normal hepatic function
[6] = moderate (Child-Pugh B) vs normal hepatic function
[7] = severe (Child-Pugh C) vs normal hepatic function

With `COc1cc(N2CCC(N3CCN(C)CC3)CC2)ccc1Nc1ncc(Cl)c(Nc2ccccc2P(C)(C)=O)n1` [brigatinib] the “geometric mean AUC0−last,u higher than in healthy participants” value ([1]; Child-Pugh C vs healthy participants with normal hepatic function) was 34%, the Tmax ([1]; mild (Child-Pugh A) hepatic impairment (n=6)) was 1.75 h and the Tmax ([1]; severe (Child-Pugh C) hepatic impairment (n=6)) was 0.5 h. The half-life ([1]; mild (Child-Pugh A) (n=6)) was 47 h, the half-life ([1]; moderate (Child-Pugh B) (n=6)) was 48.7 h and the half-life ([1]; normal hepatic function (n=9)) was 47.6 h. For the same molecule, the half-life ([1]; severe (Child-Pugh C) (n=6)) was 51 h, the AUC(0-t) ([1]; mild (Child-Pugh A) (n=6)) was 522 ng·h/mL and the AUC(0-inf) ([1]; mild (Child-Pugh A) (n=6)) was 539 ng·h/mL. It also gave an AUC(0-t) ([1]; moderate (Child-Pugh B) (n=6)) of 578 ng·h/mL, an AUC(0-inf) ([1]; moderate (Child-Pugh B) (n=6)) of 601 ng·h/mL and an AUC(0-t) ([1]; normal hepatic function (n=9)) of 581 ng·h/mL. It also gave an AUC(0-inf) ([1]; normal hepatic function (n=9)) of 603 ng·h/mL, an AUC(0-t) ([1]; severe (Child-Pugh C) (n=6)) of 781 ng·h/mL and an AUC(0-inf) ([1]; severe (Child-Pugh C) (n=6)) of 829 ng·h/mL. The “AUC0−last,u geometric LSM ratio (90% CI)” value [1, 5] was 89.77 (70.37–114.52) %, the “AUC0−∞,u geometric LSM ratio (90% CI)” value [1, 5] was 89.32 (69.79–114.31) % and the “Cmax,u geometric LSM ratio (90% CI)” value [1, 5] was 94.75 (75.36–119.12) %. For the same molecule, the “AUC0−last,u geometric LSM ratio (90% CI)” value [1, 6] was 99.41 (77.93–126.82) %, the “AUC0−∞,u geometric LSM ratio (90% CI)” value [1, 6] was 99.55 (77.78–127.41) % and the “Cmax,u geometric LSM ratio (90% CI)” value [1, 6] was 92.01 (73.18–115.68) %. The “AUC0−last,u geometric LSM ratio (90% CI)” value [1, 7] was 134.38 (105.34–171.43) %, the “AUC0−∞,u geometric LSM ratio (90% CI)” value [1, 7] was 137.41 (107.37–175.86) % and the “Cmax,u geometric LSM ratio (90% CI)” value [1, 7] was 165.26 (131.44–207.78) %. The “Tmax, median (range)” value ([1]; moderate (Child-Pugh B) hepatic impairment (n=6)) was 2.00 (0.50‒3.00) h, the “Tmax, median (range)” value ([1]; normal hepatic function (n=9)) was 2.00 (1.00‒6.00) h and the “CL/Fu, unbound apparent oral clearance, geometric mean (geometric %CV)” value ([1]; mild (Child-Pugh A) (n=6)) was 167 (24.9) L/h. For the same molecule, the “Vz/Fu, unbound apparent volume of distribution, geometric mean (geometric %CV)” value (from here on “Vz/Fu, unbound apparent volume … (geometric %CV)”) ([1]; mild (Child-Pugh A) (n=6)) was 11,300 (45.8) L, the “CL/Fu, unbound apparent oral clearance, geometric mean (geometric %CV)” value ([1]; moderate (Child-Pugh B) (n=6)) was 150 (39.8) L/h and the “Vz/Fu, unbound apparent volume … (geometric %CV)” value ([1]; moderate (Child-Pugh B) (n=6)) was 10,500 (29.5) L. The “CL/Fu, unbound apparent oral clearance, geometric mean (geometric %CV)” value ([1]; normal hepatic function (n=9)) was 149 (25.0) L/h, the “Vz/Fu, unbound apparent volume … (geometric %CV)” value ([1]; normal hepatic function (n=9)) was 10,200 (31.0) L and the “CL/Fu, unbound apparent oral clearance, geometric mean (geometric %CV)” value ([1]; severe (Child-Pugh C) (n=6)) was 109 (20.0) L/h. The “Vz/Fu, unbound apparent volume … (geometric %CV)” value ([1]; severe (Child-Pugh C) (n=6)) was 7,990 (33.2) L, the “Cmax,u, geometric mean (geometric %CV)” value ([1]; mild (Child-Pugh A) (n=6)) was 28.7 (9.5) ng/mL and the “Cmax,u, geometric mean (geometric %CV)” value ([1]; moderate (Child-Pugh B) (n=6)) was 27.8 (24.8) ng/mL. The “Cmax,u, geometric mean (geometric %CV)” value ([1]; normal hepatic function (n=9)) was 30.3 (27.2) ng/mL, the “Cmax,u, geometric mean (geometric %CV)” value ([1]; severe (Child-Pugh C) (n=6)) was 50.0 (34.5) ng/mL and the metabolizing enzymes [2] was “primarily metabolized by cytochrome P450 (CYP) 2C8 and CYP3A4”. The “effect of a high-fat, high-calorie meal on total systemic exposure (AUC)” value [3] was “no clinically meaningful effect”, the “IRC-assessed confirmed objective response rate (ORR)” value [4] was 56% and the “IRC-assessed median progression-free survival (PFS)” value [4] was 16.7 months.
